Experimental data from ChEMBL document CHEMBL4321853, “Multitarget CFTR Modulators Endowed with Multiple Beneficial Side Effects for Cystic Fibrosis Patients: Toward a Simplified Therapeutic Approach †” (J Med Chem, 2019).
Values after ≈ are worked out from the molar mass of the structure shown. Active and inactive are the calls of the source. The calls are words filed in the database; no cut-off is given here.

Columns and labels:
[1] = Cytotoxicity against human RD cells infected with Human coxsackievirus B3 assessed as reduction in cell viability incubated for 2 to 3 days by MTS assay; assay type: cell-based
rhinovirus B14 = experiment: Antiviral activity against Human rhinovirus B14 infected in human RD cells assessed as reduction in cytopathic effect incubated for 2 to 3 days by MTS assay; assay type: functional, organism-based; settings: Rhinovirus B
[2] = tested on: Cystic fibrosis transmembrane conductance regulator (Homo sapiens), P13569 [F508del]; experiment: Corrector activity at CFTR F508del mutant (unknown origin) transfected in human HEK293 membrane cells assessed as increase in CFTR F508del level at 10 uM incubated for 24 hrs by using pHTomato probe based fluorescence inverted microscopic analysis; assay type: cell-based
Chain of Cystic fibrosis transmembrane conductance regulator (Homo sapiens), P13569 [F508del] (P13569 as listed by the source): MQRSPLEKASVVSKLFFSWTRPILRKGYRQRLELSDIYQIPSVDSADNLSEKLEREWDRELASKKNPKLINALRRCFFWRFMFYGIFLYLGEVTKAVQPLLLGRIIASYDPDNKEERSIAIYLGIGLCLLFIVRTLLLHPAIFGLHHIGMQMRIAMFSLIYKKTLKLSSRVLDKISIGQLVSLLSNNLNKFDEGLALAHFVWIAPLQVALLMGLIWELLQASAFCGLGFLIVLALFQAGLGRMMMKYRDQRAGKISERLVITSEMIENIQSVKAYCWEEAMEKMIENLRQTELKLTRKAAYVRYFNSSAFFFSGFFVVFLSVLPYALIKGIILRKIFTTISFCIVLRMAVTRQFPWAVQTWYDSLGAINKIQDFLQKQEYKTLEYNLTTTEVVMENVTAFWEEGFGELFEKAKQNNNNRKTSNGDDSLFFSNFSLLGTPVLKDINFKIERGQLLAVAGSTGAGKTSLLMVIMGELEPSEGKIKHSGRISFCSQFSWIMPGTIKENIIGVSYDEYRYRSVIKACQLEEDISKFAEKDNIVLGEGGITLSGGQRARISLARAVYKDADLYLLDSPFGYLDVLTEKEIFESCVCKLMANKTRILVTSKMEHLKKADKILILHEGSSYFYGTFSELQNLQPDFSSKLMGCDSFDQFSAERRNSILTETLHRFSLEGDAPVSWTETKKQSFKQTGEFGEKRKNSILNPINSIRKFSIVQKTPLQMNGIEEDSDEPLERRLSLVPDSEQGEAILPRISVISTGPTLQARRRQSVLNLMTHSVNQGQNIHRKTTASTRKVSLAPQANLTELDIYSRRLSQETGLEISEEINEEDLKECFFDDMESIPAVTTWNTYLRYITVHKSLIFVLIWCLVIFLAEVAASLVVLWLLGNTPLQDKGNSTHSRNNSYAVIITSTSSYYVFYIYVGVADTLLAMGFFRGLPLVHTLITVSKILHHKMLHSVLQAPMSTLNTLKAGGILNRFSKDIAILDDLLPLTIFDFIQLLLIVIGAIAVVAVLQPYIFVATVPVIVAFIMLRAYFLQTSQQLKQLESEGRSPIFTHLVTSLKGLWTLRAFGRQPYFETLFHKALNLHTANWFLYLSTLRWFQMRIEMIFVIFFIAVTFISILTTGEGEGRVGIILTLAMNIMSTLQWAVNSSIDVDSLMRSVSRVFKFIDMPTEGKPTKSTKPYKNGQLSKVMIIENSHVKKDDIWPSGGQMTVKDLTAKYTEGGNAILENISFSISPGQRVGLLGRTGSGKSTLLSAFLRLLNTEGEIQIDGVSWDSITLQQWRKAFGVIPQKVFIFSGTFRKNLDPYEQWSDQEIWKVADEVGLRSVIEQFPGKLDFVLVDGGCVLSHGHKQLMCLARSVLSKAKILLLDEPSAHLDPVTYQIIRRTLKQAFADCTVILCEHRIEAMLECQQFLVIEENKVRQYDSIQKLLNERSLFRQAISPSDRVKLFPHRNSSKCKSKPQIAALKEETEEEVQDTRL

rhinovirus A2 = experiment: Antiviral activity against Human rhinovirus A2 infected in human RD cells assessed as reduction in cytopathic effect incubated for 2 to 3 days by MTS assay; assay type: functional, organism-based; settings: Rhinovirus A
Coxsackievirus B3 = experiment: Antiviral activity against Human coxsackievirus B3 infected in human RD cells assessed as reduction in cytopathic effect incubated for 2 to 3 days by MTS assay; assay type: functional, organism-based; settings: Enterovirus B
[3] = Cytotoxicity against human RD cells infected with Human rhinovirus A2 assessed as reduction in cell viability incubated for 2 to 3 days by MTS assay; assay type: cell-based
[4] = tested on: Cystic fibrosis transmembrane conductance regulator (Homo sapiens), P13569 [F508del]; experiment: Corrector activity at CFTR F508del mutant (unknown origin) transfected in human HEK293 membrane cells assessed as increase in CFTR level at 3 uM incubated for 24 hrs by using pHTomato probe based fluorescence inverted microscopic analysis; assay type: cell-based
[5] = tested on: Cystic fibrosis transmembrane conductance regulator (Homo sapiens), P13569 [F508del]; experiment: Corrector activity at CFTR F508del mutant (unknown origin) transfected in human HEK293 membrane cells assessed as increase in anion permeability at 3 uM incubated for 24 hrs by using YFP probe based fluorescence inverted microscopic analysis; assay type: cell-based
Enterovirus A71 = experiment: Antiviral activity against Enterovirus A71 infected in human RD cells assessed as reduction in cytopathic effect incubated for 2 to 3 days by MTS assay; assay type: functional, organism-based
[6] = Cytotoxicity against human RD cells assessed as reduction in cell viability incubated for 2 to 3 days by MTS assay; assay type: cell-based
[7] = Cytotoxicity against human RD cells infected with Human rhinovirus B14 assessed as reduction in cell viability incubated for 2 to 3 days by MTS assay; assay type: cell-based
Albumin [8] = molecular target: T1, Albumin (Homo sapiens, UniProt P02768); experiment: Binding affinity to human serum albumin assessed as dissociation constant incubated for 30 mins by spectrofluorimetry; assay type: ADME
T1 sequence (P02768 whole entry): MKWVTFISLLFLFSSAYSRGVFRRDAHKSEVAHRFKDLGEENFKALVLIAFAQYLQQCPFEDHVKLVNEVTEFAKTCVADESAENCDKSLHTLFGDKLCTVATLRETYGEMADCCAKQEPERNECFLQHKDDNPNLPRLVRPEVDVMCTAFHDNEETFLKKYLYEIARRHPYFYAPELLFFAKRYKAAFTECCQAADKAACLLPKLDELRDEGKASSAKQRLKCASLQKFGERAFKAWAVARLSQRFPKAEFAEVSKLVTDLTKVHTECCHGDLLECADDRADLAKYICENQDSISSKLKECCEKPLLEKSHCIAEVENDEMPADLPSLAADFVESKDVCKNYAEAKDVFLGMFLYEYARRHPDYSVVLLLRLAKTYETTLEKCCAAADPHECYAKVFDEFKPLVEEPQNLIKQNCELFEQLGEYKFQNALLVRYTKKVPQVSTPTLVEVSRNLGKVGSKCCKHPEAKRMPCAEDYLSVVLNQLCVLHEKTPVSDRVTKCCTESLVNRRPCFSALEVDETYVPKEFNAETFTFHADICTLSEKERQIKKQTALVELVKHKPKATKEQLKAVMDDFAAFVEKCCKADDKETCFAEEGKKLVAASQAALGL

[9] = Apparent permeability of compound by PAMPA assay; assay type: ADME
Albumin [10] = molecular target: T1, Albumin; experiment: Binding affinity to human serum albumin assessed as maximum binding at 0.1 to 500 uM incubated for 30 mins by spectrofluorimetry; assay type: ADME; settings: isolated protein, 0.5 h
[11] = Membrane retention of compound by PAMPA assay; assay type: ADME
[12] = Stability in human plasma assessed as half life measured upto 24 hrs by UV/LC-MS analysis; assay type: ADME, cell-free
[13] = Metabolic stability in human liver microsomes assessed as compound remaining at 50 uM incubated for 1 hr by UV/LC-MS analysis; assay type: ADME, Microsome; settings: read-out: Stability
[14] = Aqueous solubility of compound by LC-MS analysis; assay type: physicochemical; settings: buffer
[15] = Acute toxicity in C57BL/6 mouse assessed as effect on behavior changes upto 180 mg/kg, sc observed for 15 days; assay type: organism-based; settings: in vivo, 360 h
[16] = Toxicity in C57BL/6 mouse assessed as epithelial hyperplasia upto 180 mg/kg, sc observed after 4 and 72 hrs by hematoxylin and eosin staining based microscopy; assay type: organism-based; settings: in vivo
[17] = Toxicity in C57BL/6 mouse assessed as alveolar/interstitial inflammatory infiltrate upto 180 mg/kg, sc observed after 4 and 72 hrs by hematoxylin and eosin staining based microscopy; assay type: organism-based; settings: in vivo
[18] = Selectivity index, ratio of CC50 for human RD cells to EC50 for Enterovirus A71 infected in human RD cells; assay type: toxicity, cell-based; settings: read-out: Ratio CC50/EC50
[19] = Toxicity in C57BL/6 mouse assessed as effect on distribution of goblet cells upto 180 mg/kg, sc observed after 4 and 72 hrs by hematoxylin and eosin staining based microscopy; assay type: organism-based; settings: in vivo
[20] = Toxicity in C57BL/6 mouse assessed as effect on alveolar microstructure upto 180 mg/kg, sc observed after 4 and 72 hrs by hematoxylin and eosin staining based microscopy; assay type: organism-based; settings: in vivo
[21] = Acute toxicity in C57BL/6 mouse assessed as body weight loss upto 180 mg/kg, sc observed for 15 days; assay type: organism-based; settings: in vivo, 360 h
[22] = Toxicity in C57BL/6 mouse assessed as hemorrhage in lung upto 180 mg/kg, sc observed after 4 and 72 hrs by hematoxylin and eosin staining based microscopy; assay type: organism-based; settings: in vivo
[23] = Acute toxicity in C57BL/6 mouse assessed as effect on motor coordination upto 180 mg/kg, sc observed for 15 days; assay type: organism-based; settings: in vivo, 360 h
[24] = Toxicity in C57BL/6 mouse assessed as inflammation of intestinal submucosa upto 180 mg/kg, sc observed after 4 and 72 hrs by hematoxylin and eosin staining based microscopy; assay type: organism-based; settings: in vivo
[25] = Toxicity in C57BL/6 mouse assessed as effect on hepatic labyrinth of hepatocytes upto 180 mg/kg, sc observed after 4 and 72 hrs by hematoxylin and eosin staining based microscopy; assay type: organism-based; settings: in vivo
[26] = Toxicity in C57BL/6 mouse assessed as effect on columnar lining cell upto 180 mg/kg, sc observed after 4 and 72 hrs by hematoxylin and eosin staining based microscopy; assay type: organism-based; settings: in vivo
[27] = molecular target: Phosphatidylinositol 4-kinase beta (Homo sapiens, UniProt Q9UBF8); experiment: Inhibition of recombinant human full length His6-tagged PI4KIII beta expressed in Sf9 cells incubated for 0 mins in presence of [gamma-33P ATP] by scintillation counting method
Chain of Phosphatidylinositol 4-kinase beta (Q9UBF8 whole entry): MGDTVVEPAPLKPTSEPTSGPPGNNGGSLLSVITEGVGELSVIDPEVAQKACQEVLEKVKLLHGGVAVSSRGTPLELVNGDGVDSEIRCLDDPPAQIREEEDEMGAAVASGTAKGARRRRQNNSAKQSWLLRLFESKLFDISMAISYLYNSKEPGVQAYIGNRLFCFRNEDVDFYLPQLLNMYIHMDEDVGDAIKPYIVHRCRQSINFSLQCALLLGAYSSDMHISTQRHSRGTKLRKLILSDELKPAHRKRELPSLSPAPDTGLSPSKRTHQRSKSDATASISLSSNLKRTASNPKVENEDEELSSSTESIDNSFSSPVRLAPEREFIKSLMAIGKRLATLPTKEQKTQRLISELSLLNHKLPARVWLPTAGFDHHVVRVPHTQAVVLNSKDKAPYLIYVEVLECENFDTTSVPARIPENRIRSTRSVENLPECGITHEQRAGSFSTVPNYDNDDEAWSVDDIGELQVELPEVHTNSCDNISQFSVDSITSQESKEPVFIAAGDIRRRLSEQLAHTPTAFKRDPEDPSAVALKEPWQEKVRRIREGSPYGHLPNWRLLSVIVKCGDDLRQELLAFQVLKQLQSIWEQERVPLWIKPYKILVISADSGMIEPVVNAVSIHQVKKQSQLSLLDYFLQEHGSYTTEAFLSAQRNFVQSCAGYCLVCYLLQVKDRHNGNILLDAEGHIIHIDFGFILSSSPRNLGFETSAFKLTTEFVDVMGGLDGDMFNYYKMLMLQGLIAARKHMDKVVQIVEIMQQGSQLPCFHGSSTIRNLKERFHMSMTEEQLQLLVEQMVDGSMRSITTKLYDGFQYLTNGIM

[28] = Enterovirus A, RD, read-out: EC50

Cc1nc(NC(=O)C(C)(C)C)sc1-c1csc(Nc2cccc(C(=O)O)c2)n1
CC50 [1]: 111 µM | EC50 (rhinovirus B14): 15.3 µM | Activity [2]: Active | EC50 (rhinovirus A2): 9.7 µM | EC50 (Coxsackievirus B3): 17 µM | CC50 [3]: 36.3 µM | Activity [4]: Active | Activity [5]: Active | EC50 (Enterovirus A71; [28]): 0.42 µM | CC50 [6]: 32.1 µM | CC50 [7]: 36.3 µM

CC(=O)Nc1nc(C)c(-c2csc(NC(=O)CBr)n2)s1
EC50 (Enterovirus A71): Not Active

Cc1nc(NC(=O)OC(C)(C)C)sc1-c1csc(NCCO)n1
EC50 (Enterovirus A71; [28]): 11.4 µM | CC50 [6]: > 421 µM

Cc1nc(NC(=O)C(C)(C)C)sc1-c1csc(NCCCC(=O)O)n1
EC50 (Enterovirus A71; [28]): 7.27 µM | CC50 [6]: 261 µM

C=CC(=O)Nc1nc(-c2sc(NC(C)=O)nc2C)cs1
EC50 (Enterovirus A71; [28]): 1.89 µM | CC50 [6]: 6.01 µM

COc1ccc(Cl)cc1Nc1nc(-c2sc(NC(=O)c3ccccc3)nc2C)cs1
Kd (Albumin [8]): 11.7 µM | Papp [9]: 8.1 ×10⁻⁶ cm/s | Bmax (Albumin [10]): 88.82 | R% [11]: 37.9% | half-life [12]: 3.61 days | remaining at 1 h, 50 µM [13]: 98% | solubility [14]: 0.02 µM (≈ 0.00914 µg/mL)

CC(=O)Nc1nc(C)c(-c2csc(NC3CCCCC3)n2)s1
EC50 (Enterovirus A71; [28]): 1.1 µM | CC50 [6]: 25.5 µM

CC(=O)Nc1nc(C)c(-c2csc(N(CCO)c3cccc(C(C)=O)c3)n2)s1
EC50 (Enterovirus A71): Not Active

Cc1nc(NC(=O)C(C)(C)C)sc1-c1csc(NCC(=O)O)n1
EC50 (Enterovirus A71; [28]): 5.31 µM | CC50 [6]: > 282 µM

CC(=O)Nc1nc(C)c(-c2csc(NC(=O)/C=C/C(C)C)n2)s1
EC50 (Enterovirus A71; [28]): 107 µM | CC50 [6]: 172 µM

CC(=O)Nc1nc(C)c(-c2csc(N(CCO)C3CCCCC3)n2)s1
CC50 [1]: 20.8 µM | EC50 (rhinovirus B14): 6.24 µM | EC50 (rhinovirus A2): > 263 µM | EC50 (Coxsackievirus B3): 16.1 µM | CC50 [3]: > 4.51 µM | EC50 (Enterovirus A71; [28]): 1.1 µM | CC50 [6]: 16.4 µM | CC50 [7]: 4.51 µM

CC(=O)c1cccc(Nc2nc(-c3sc(NC(=O)OC(C)(C)C)nc3C)cs2)c1
Activity [4]: Active

Cc1nc(NC(=O)C(C)(C)C)sc1-c1csc(N(CCO)C2CCCCC2)n1
Activity [2]: Active | Activity [4]: Active | Activity [5]: Active | EC50 (Enterovirus A71; [28]): 4.96 µM | CC50 [6]: 4.46 µM

Cc1nc(NC(=O)C(C)(C)C)sc1-c1csc(NCCC(=O)O)n1
EC50 (Enterovirus A71; [28]): 6.48 µM | CC50 [6]: > 271 µM

Cc1nc(NC(=O)C(C)(C)C)sc1-c1csc(NCCO)n1
CC50 [1]: > 293 µM | EC50 (rhinovirus B14): 3.8 µM | Activity [2]: Active | EC50 (rhinovirus A2): 5.4 µM | EC50 (Coxsackievirus B3): 2.3 µM | CC50 [3]: 41.2 µM | Activity [4]: Active | Activity [5]: inactive | EC50 (Enterovirus A71; [28]): 1.83 µM | CC50 [6]: 361 µM | CC50 [7]: 41.2 µM

CC(=O)Nc1nc(C)c(-c2csc(NCCO)n2)s1
EC50 (Enterovirus A71; [28]): 12.6 µM | CC50 [6]: 333 µM

CCC(=O)Nc1nc(-c2sc(NC(C)=O)nc2C)cs1
EC50 (Enterovirus A71): Not Active

CC(=O)c1cccc(N(CCO)c2nc(-c3sc(NC(=O)C(C)(C)C)nc3C)cs2)c1
CC50 [1]: > 218 µM | Kd (Albumin [8]): 18.5 µM | Activity [15]: Non-Toxic | Activity [16]: Non-Toxic | EC50 (rhinovirus B14): > 9.1 µM | Activity [17]: Non-Toxic | Bmax (Albumin [10]): 81.73 | Activity [2]: Active | EC50 (rhinovirus A2): 6.1 µM | selectivity ratio [18]: > 67.2 | Activity [19]: Non-Toxic | EC50 (Coxsackievirus B3): 6.6 µM | CC50 [3]: 16.8 µM | R% [11]: < 0.1% | Activity [20]: Non-Toxic | half-life [12]: 24.2 days | Activity [21]: Non-Toxic | remaining at 1 h, 50 µM [13]: 98% | Activity [4]: Active | Activity [5]: Active | solubility ([14]; read-out: solubility): 0.1 µM (≈ 0.0459 µg/mL) | EC90 (Enterovirus A71; Enterovirus A, RD): 5.78 µM | EC50 (Enterovirus A71; [28]): < 0.43 µM | Activity [22]: Non-Toxic | CC50 [6]: 28.9 µM | CC50 [7]: 16.8 µM | Activity [23]: Non-Toxic | Activity [24]: Non-Toxic | Activity [25]: Non-Toxic | Activity [26]: Non-Toxic

C=CS(=O)(=O)Nc1nc(-c2sc(NC(C)=O)nc2C)cs1
EC50 (Enterovirus A71; [28]): > 290 µM | IC50 [27]: Not Active

CC(=O)Nc1nc(C)c(-c2csc(N(C)C3CCCCC3)n2)s1
EC50 (Enterovirus A71; [28]): 0.88 µM | CC50 [6]: 19.4 µM

Cc1nc(NC(=O)c2ccccc2)sc1-c1csc(NCCO)n1
EC50 (Enterovirus A71): Not Active

CC(=O)Nc1nc(C)c(-c2csc(NC3CCC(C)CC3)n2)s1 (stereo not given)
EC50 (Enterovirus A71; [28]): 0.34 µM | CC50 [6]: 10.9 µM

CC(=O)c1cccc(Nc2nc(-c3sc(NC(=O)c4ccccc4)nc3C)cs2)c1
Activity [4]: Active
